The source made the active and inactive calls. The calls are words filed in the database; no cut-off is given here.
Assays:
[1] = target: Adenosine receptor A2a (Homo sapiens, UniProt P29274); assay: Antagonist activity at human adenosine A2A receptor expressed in CHO-K1 cells preincubated for 15 mins before NECA addition measured after 5.5 to 6 hrs by beta-galactosidase reporter gene assay; type: functional, cell-based
[2] = test system: Mus musculus; assay: Reversal of haloperidol-induced catalepsy in balb/c mouse at 10 mg/kg, po compound administered 30 mins post challenge; type: functional
[3] = test system: Mus musculus; assay: Reversal of haloperidol-induced catalepsy in po dosed balb/c mouse compound administered 30 mins post challenge; type: functional; settings: 0.5 h
[4] = target: T1, Adenosine receptor A1 (Homo sapiens, UniProt P30542); assay: Antagonist activity at human adenosine A1 receptor expressed in CHO-K1 cells preincubated for 15 mins before r-PIA addition measured after 5.5 to 6 hrs by beta-galactosidase reporter gene assay; type: cell-based
T1 sequence (P30542 whole entry): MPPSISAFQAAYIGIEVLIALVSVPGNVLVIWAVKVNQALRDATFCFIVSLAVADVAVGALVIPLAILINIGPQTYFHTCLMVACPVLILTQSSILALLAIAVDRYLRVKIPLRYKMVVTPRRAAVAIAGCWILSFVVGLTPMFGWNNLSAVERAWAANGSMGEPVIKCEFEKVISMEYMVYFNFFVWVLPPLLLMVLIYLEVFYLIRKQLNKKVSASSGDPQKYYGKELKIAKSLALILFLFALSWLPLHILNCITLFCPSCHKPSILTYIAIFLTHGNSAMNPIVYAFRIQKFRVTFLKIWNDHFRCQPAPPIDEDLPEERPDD

Chain of Adenosine receptor A2a (P29274 whole entry): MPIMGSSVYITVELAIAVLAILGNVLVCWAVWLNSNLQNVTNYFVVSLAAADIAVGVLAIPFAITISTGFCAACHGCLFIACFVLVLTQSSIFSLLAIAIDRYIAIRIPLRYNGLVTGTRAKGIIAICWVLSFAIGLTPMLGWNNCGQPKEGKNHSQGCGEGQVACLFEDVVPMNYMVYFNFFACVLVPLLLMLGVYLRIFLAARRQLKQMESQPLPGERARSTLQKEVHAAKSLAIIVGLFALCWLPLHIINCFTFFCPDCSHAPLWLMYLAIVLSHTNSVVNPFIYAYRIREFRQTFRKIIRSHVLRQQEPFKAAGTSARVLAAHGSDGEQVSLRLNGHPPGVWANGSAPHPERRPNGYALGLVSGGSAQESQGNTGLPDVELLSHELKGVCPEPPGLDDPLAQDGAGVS

Row | Compound | Ki [1] | Activity [2] | ED50 [3] | Ki [4]
1 | Nc1nc(-c2ccco2)nc2sc(CN3CCC(F)C3)cc12 (stereo unspecified) | 10.3 nM | inactive | – | –
2 | Nc1nc(-c2ccco2)nc2sc(CN3CCC(F)CC3)cc12 | 19.7 nM | – | < 1 mg/kg | –
3 | CCc1ccc(-c2nc(N)c3cc(CN4CCOCC4)sc3n2)o1 | – | – | – | > 610 nM
4 | Nc1nc(-c2ccc(Cl)o2)nc2sc(CN3CCCC(F)(F)C3)cc12 | 9.1 nM | – | – | 188 nM
5 | Nc1nc(-c2ccco2)nc2sc(CN3CCC(F)(F)CC3)cc12 | 49.6 nM | – | – | –
6 | CN(C)C(=O)c1cccc(-c2nc(N)c3cc(CN4CCC(F)CC4)sc3n2)c1 | 2250 nM | – | – | > 10000 nM
7 | CC(C)c1ccc(-c2nc(N)c3cc(CN4CCOCC4)sc3n2)o1 | > 1360 nM | – | – | > 600 nM
8 | Nc1nc(-c2ccc(Br)o2)nc2sc(CN3CCOCC3)cc12 | 30 nM | – | – | 725 nM
9 | CC(C)c1ccc(-c2nc(N)c3cc(CN4[C@H](C)CCC[C@@H]4C)sc3n2)o1 | 17 nM | inactive | – | 140 nM
10 | Nc1nc(-c2cccs2)nc2sc(CN3CCCC3)cc12 | 110 nM | – | – | > 10000 nM
11 | N#Cc1cccc(-c2nc(N)c3cc(CN4CCCC4)sc3n2)c1 | > 10000 nM | – | – | –
12 | Nc1nc(-c2ccccc2C(F)(F)F)nc2sc(CN3CCC(F)CC3)cc12 | > 10000 nM | – | – | > 10000 nM
13 | Cc1csc(-c2nc(N)c3cc(CN4CCOCC4)sc3n2)n1 | – | – | – | > 930 nM
14 | Nc1nc(-c2ccc(C(F)F)o2)nc2sc(CN3CCOCC3)cc12 | – | inactive | – | –
15 | N#Cc1ccc(-c2nc(N)c3cc(CN4CC=CCC4)sc3n2)cc1 | 180 nM | – | – | –
16 | Nc1nc(-c2ccco2)nc2sc(CN3CCCCCC3)cc12 | 27.6 nM | – | – | 1170 nM
17 | Nc1nc(-c2cccc(C(F)(F)F)c2)nc2sc(CN3CC=CC3)cc12 | – | – | – | 2960 nM
18 | Nc1nc(-c2ncco2)nc2sc(CN3CC=CCC3)cc12 | 240 nM | – | – | 2960 nM
19 | Nc1nc(-c2nccs2)nc2sc(CN3CCOCC3)cc12 | 250 nM | – | – | –
20 | Nc1nc(-c2ncco2)nc2sc(CN3CC=CC3)cc12 | 240 nM | – | – | 3890 nM

Row | Compound | Ki [1] | Activity [2] | ED50 [3] | Ki [4]
21 | Nc1nc(-c2ccco2)nc2sc(CN3CCSCC3)cc12 | 9.2 nM | – | 3.2 mg/kg | 369 nM
22 | N#Cc1cccc(-c2nc(N)c3cc(CN4CCSCC4)sc3n2)c1 | 50.9 nM | – | – | 980 nM
23 | CN(C)Cc1cc2c(N)nc(-c3ccco3)nc2s1 | 140 nM | – | – | –
24 | Cc1ccc(-c2nc(N)c3cc(CN4CCCC4)sc3n2)o1 | – | inactive | – | –
25 | Nc1nc(-c2ccc(Cl)o2)nc2sc(CN3CCCC3)cc12 | – | inactive | – | –
26 | Nc1nc(-c2ccco2)nc2sc(CN3CCOCC3)cc12 | 29 nM | – | 1.3 mg/kg | 1680 nM
27 | C[C@@H]1CCC[C@H](C)N1Cc1cc2c(N)nc(-c3ccco3)nc2s1 | 5.3 nM | – | – | –
28 | C[C@@H]1CCC[C@H](C)N1Cc1cc2c(N)nc(-c3ccc(C4CC4)o3)nc2s1 | 110 nM | – | – | –
29 | Nc1nc(-c2ccco2)nc2sc(CN3CC=CCC3)cc12 | 6.5 nM | – | < 3 mg/kg | 150 nM
30 | C[C@@H]1CCC[C@H](C)N1Cc1cc2c(N)nc(-c3ccc(Br)o3)nc2s1 | – | – | – | 40.2 nM
31 | Nc1nc(-c2ccc(C3CC3)o2)nc2sc(CN3CCOCC3)cc12 | – | – | – | > 1100 nM
32 | Nc1nc(-c2ccc(Cl)o2)nc2sc(CN3CC=CC3)cc12 | 10 nM | inactive | – | –
33 | Nc1nc(-c2ccco2)nc2sc(CNC3CCCCC3)cc12 | 170 nM | – | – | –
34 | Nc1nc(-c2cccs2)nc2sc(CN3CCOCC3)cc12 | 125 nM | – | – | 1020 nM
35 | Nc1nc(-c2ccco2)nc2sc(CN3CC=CC3)cc12 | 7.2 nM | – | < 0.1 mg/kg | 290 nM
36 | Nc1nc(-c2ccccc2)nc2sc(CN3CCOCC3)cc12 | 995 nM | – | – | > 5000 nM
37 | Nc1nc(-c2cccc([N+](=O)[O-])c2)nc2sc(CN3CCC(F)CC3)cc12 | 3760 nM | – | – | > 10000 nM
38 | Nc1nc(-c2ccc(C(F)F)o2)nc2sc(CN3CCCC(F)(F)C3)cc12 | 43.2 nM | – | – | –
39 | Nc1nc(-c2ccco2)nc2sc(CN3CCCC3)cc12 | – | inactive | – | –
40 | N#Cc1cccc(-c2nc(N)c3cc(CN4CCOCC4)sc3n2)c1 | – | – | < 1 mg/kg | –

Row | Compound | Ki [1] | Activity [2] | ED50 [3] | Ki [4]
41 | N#Cc1ccc(-c2nc(N)c3cc(CN4CCC(F)CC4)sc3n2)cc1 | 390 nM | – | – | –
42 | Nc1nc(-c2ccc(Cl)o2)nc2sc(CN3CCOCC3)cc12 | 45.4 nM | – | – | 640 nM
43 | Nc1nc(-c2ccc(Cl)o2)nc2sc(CN3CCC(F)(F)C3)cc12 | 15.9 nM | – | – | 245 nM
44 | Nc1nc(-c2cccc(F)c2)nc2sc(CN3CCOCC3)cc12 | 110 nM | – | – | –
45 | Nc1nc(-c2ccco2)nc2sc(CNC3CC3)cc12 | – | inactive | – | –
46 | CS(=O)(=O)c1cccc(-c2nc(N)c3cc(CN4CCC(F)CC4)sc3n2)c1 | > 10000 nM | – | – | > 10000 nM
47 | Cc1ccc(-c2nc(N)c3cc(CN4CCCCC4)sc3n2)o1 | 28.8 nM | inactive | – | –
48 | Nc1nc(-c2ccc(Br)o2)nc2sc(CN3CCCC3)cc12 | 22.5 nM | inactive | – | 710 nM
49 | N#Cc1cccc(-c2nc(N)c3cc(CN4CCCC(F)(F)C4)sc3n2)c1 | 39 nM | – | < 1 mg/kg | 840 nM
50 | Nc1nc(-c2ccco2)nc2sc(CN3CCC(F)(F)C3)cc12 | 8.7 nM | – | 10 mg/kg | –
51 | Nc1nc(-c2ccc(Cl)o2)nc2sc(CN3CC=CCC3)cc12 | 11 nM | – | – | 190 nM
52 | Nc1nc(-c2ccco2)nc2sc(CN3CCCC(F)(F)C3)cc12 | – | – | < 1 mg/kg | 290 nM
53 | Nc1nc(-c2cccc(C(F)(F)F)c2)nc2sc(CN3CCC(F)CC3)cc12 | > 10000 nM | – | – | 3030 nM
54 | C[C@@H]1CCC[C@H](C)N1Cc1cc2c(N)nc(-c3ccc(C(F)F)o3)nc2s1 | 28.6 nM | inactive | – | –
55 | Nc1nc(-c2ccc(C(F)(F)F)cc2)nc2sc(CN3CCC(F)CC3)cc12 | > 10000 nM | – | – | 3560 nM
56 | Nc1nc(-c2ccc(Cl)o2)nc2sc(CN3CCC(F)CC3)cc12 | 36.7 nM | – | – | –
57 | Nc1nc(-c2cccc(Cl)c2)nc2sc(CN3CCOCC3)cc12 | 120 nM | – | – | –
58 | N#Cc1cccc(-c2nc(N)c3cc(CN4CCC(F)CC4)sc3n2)c1 | 54.4 nM | – | < 1 mg/kg | –
59 | CCc1ccc(-c2nc(N)c3cc(CN4[C@H](C)CCC[C@@H]4C)sc3n2)o1 | 25.2 nM | – | – | 190 nM
